One series concerns active GLP-1. Description: Plasma active GLP-1 level in db/db mice. Type of series: in vivo. The conditions noted are these: after 3-week treatment, 1CBR 500 mg/kg/day, sitagliptin 20.5 mg/kg/day, group C 5.22. The procedure:
(§1) Between the ages of 6 and 8 weeks, the blood glucose concentrations in the mice were monitored weekly. Diabetes was determined in mice when the blood glucose levels surpassed 400 mg/dL after an OGTT test (oral glucose tolerance). The mice were randomly allocated to three groups, each consisting of 13 individuals. The experimental period lasted for 3 weeks. […] Mice were housed in groups of 3–4 per cage. The sample size was determined based on previous studies and ethical considerations (3Rs principle) to achieve adequate statistical power without excessive animal use. […] This dose was also within the effective range reported for other food-derived bioactive protein hydrolysates in rodent models.
(§2) At week 3, blood samples were obtained from all mice into EDTA-treated chilled tubes and then centrifuged at 3000× g for 15 min. The supernatant was kept on ice for up to 3 h for further analysis. Plasma insulin levels and DPP-IV activity were determined using an insulin ELISA kit (Mercodia AB, Uppsala, Sweden) and a DPP-IV assay kit (Enzo Inc., Farmingdale, NY, USA), respectively. Plasma total GLP-1 levels were measured using the glucagon-like peptide-1 (total) kit from RayBiotech Inc. (Norcross, GA, USA), while active GLP-1 levels were assessed with the active GLP-1 kit from Millipore Corp. (Billerica, MA, USA), each from a different supplier.

Another series has as its system db/db mice. Description: Oral glucose tolerance test (OGTT) in db/db mice. Type of series: in vivo. The conditions noted are these: week 3, glucose 2 g/kg, 120 min, 1CBR 500 mg/kg/day, sitagliptin 20.5 mg/kg/day, p < 0.05.
The next series deals with NCI-H716 cells. Description: In vitro GLP-1 secretion in NCI-H716 cells. Type of series: cell-based, human. Conditions: NCI-H716 cells, 2.0, 2.5 and 3.0 mM, 3 h. The procedure: (§3) NCI-H716 and STC-1 enteroendocrine cell lines are widely conducted to investigate the mechanisms of GLP-1 expression. The STC-1 and NCI-H716 cell lines in this study were sourced from Bioresource Collection and Research (BCRC, Hsinchu, Taiwan). STC-1 cells were seeded in 12-well plates at 2 × 10^6 cells/mL, while NCI-H716 cells were seeded in Matrigel-coated 12-well plates at 2 × 10^5 cells/mL. Upon reaching 85% confluence, the supernatants were replaced with HEPES buffer for STC-1 and RPMI-1640 buffer without FBS for NCI-H716. […] After incubating at 37 °C with 5% CO2 for 3 h, the supernatants were harvested and assessed for GLP-1 levels using the active glucagon-like peptide-1 kit from Millipore Corp. (Billerica, MA, USA).

The subject of the next series is total GLP-1. The series is described as follows: Plasma total GLP-1 level in db/db mice. Type of series: in vivo. Conditions: after 3-week treatment, 1CBR 500 mg/kg/day, sitagliptin 20.5 mg/kg/day. The procedure: as §1, §2
In another series the test system is STC-1 cells. Description: In vitro GLP-1 secretion in STC-1 cells. The series is classed as cell-based. Conditions: STC-1 cells, 2.0, 2.5 and 3.0 mM, 3 h. The procedure: as §3
A further series deals with plasma insulin. The series is described as follows: Plasma insulin level in db/db mice (ELISA). Type of series: in vivo. Conditions: after 3-week treatment, 1CBR 500 mg/kg/day, sitagliptin 20.5 mg/kg/day, untreated group C 6.51. The procedure:
as §1, §2

In another series the target is T1, DPP-IV (Sus scrofa, UniProt P22411).
T1 construct: purchased Sigma-Aldrich D7052; host or cells: porcine kidney (tissue-derived)
Description: In vitro DPP-IV inhibition assay. The series is classed as biochemical, porcine. Conditions: synthesized peptides, in vitro enzymatic assay. The source says:
Sodium caseinate was obtained from Gemfont Inc. (Taipei, Taiwan). Bromelain, derived from pineapple stem, was obtained from STBIO Media Inc. (New Taipei, Taiwan). Dipeptidyl peptidase-IV (DPP-IV; D7052, sourced from porcine kidney), Gly-Pro-p-nitroanilide, HEPES sodium salt (H3784), and RPMI-1640 medium (R8758) were obtained from Sigma-Aldrich (St. Louis, MO, USA). The remaining chemicals and reagents were of analytical grade and were available from commercial suppliers.
In this study, 1CBR was purified by RP-HPLC using a Model L-2130 HPLC system (Hitachi Ltd., Katsuda, Japan). Afterward, 2 mg of the lyophilized hydrolysate fraction was reconstituted in 1 mL of ddH2O, and 60 μL of the resulting solution was subjected to injection onto a ZORBAX Eclipse Plus C18 column (4.6 mm × 250 mm, Agilent Tech. Inc., Santa Clara, CA, USA) for analysis. A gradient of acetonitrile, ranging from 5% to 60% over 60 min, was applied in 0.1% TFA at 0.7 mL/min. Peptides were monitored at 220 nm. After collection, each fraction was lyophilized and stored in a desiccator for future use. The fractions were then re-dissolved in 100 mM Tris buffer (pH 7.0) to achieve a 1 mg/mL concentration and were evaluated for in vitro DPP-IV inhibitory activity. The assay for DPP-IV inhibition was conducted following the procedure outlined in our previous study.
The selected peptides were generated through Fmoc-based solid-phase peptide synthesis using an automated synthesizer (CS 136, CS Bio Co., San Carlos, CA, USA). Their structural integrity and purity were confirmed via RP-HPLC-MS/MS analysis. To assess their inhibitory potential against DPP-IV, the IC50 values were determined through in vitro enzymatic assays. […]

A short description of series [1]: MALDI-TOF/TOF check of intact peptide in rat plasma. Conditions: 60 min post-administration, oral 16 mg/kg BW. The series is classed as in vivo, Sprague–Dawley rats. The procedure: A 0.6 μL aliquot of peptide solution (1 mg/mL) was mixed with an equal volume of saturated α-cyano-4-hydroxycinnamic acid matrix and then air-dried on the target plate. The dried sample was subsequently analyzed using MALDI-TOF/TOF MS in positive ion reflection mode under a 20 kV accelerating voltage. Mass spectra were generated by averaging 200 laser shots within an m/z range of 200–2500 Da. Tandem mass spectrometry (MS/MS) was performed to determine peptide sequences, with data processed using BioTools software (Version 3.2, Bruker Daltonics, Billerica, MA, USA).
To verify that the peaks observed in the RP-HPLC chromatogram corresponded to the intact peptides GPFPLPD and […], plasma samples from rats with or without peptide administration were analyzed by MALDI-TOF/TOF, as described in Section 2.4.2.

Details of series [2]: species or system Sprague–Dawley rats. Conditions: rat, in vivo; for AR30 (absorption ratio at 30 min) / AR90 (absorption ratio at 90 min) / AUC / Cmax / Fractional absorption / Tmax / half-life: po, 16 mg/kg. The source says:
In this study, GPFPLPD and […] peptides were synthesized and prepared for the in vivo absorption study as outlined in Section 2.4. The experiment involved ten male Sprague–Dawley rats (LASCO, Taipei, Taiwan), each 6 weeks old and weighing between 230 and 250 g. Prior to the experiment, the rats were allowed a 7-day acclimatization period, during which they were fed a 5012-Rat Diet (LabDiet®, St. Louis, MO, USA), consisting of 60% carbohydrates, 13% fat, and 27% protein based on total caloric content. The rats were randomly assigned to two groups (5 rats per group) and orally administered a single dose of either GPFPLPD or […] peptide at 16 mg/kg body weight.
Overnight-fasted rats were administered the peptides, and blood samples were collected from the tail vein at 0, 30, 60, 90, and 180 min post-administration. To obtain plasma, the samples were centrifuged at 3000× g for 15 min at 4 °C. A 500 µL aliquot of plasma was then combined with an equal volume of acetonitrile, followed by additional centrifugation at 1200× g for 10 min at 4 °C to precipitate high-molecular-weight proteins. The resulting supernatant (20 µL) was analyzed via RP-HPLC under the conditions outlined in Section 2.4. Peptide concentrations were quantified using calibration curves from peptide standards prepared in 50% (v/v) acetonitrile (Figure S4). The estimated blood volume of male rats was 6.86 mL per 100 g of body weight.
The pharmacokinetic parameters, including the half-life (t1/2), area under the plasma drug concentration–time curve (AUC), time-to-peak concentration (Tmax), and peak concentration (Cmax), were directly determined and analyzed. The absorption ratio (ARt; %) was defined as the percentage of the administered peptide dose (16 mg/kg BW) present in plasma, calculated as the product of peptide concentration and blood volume at each time point. The AUC method was also employed to quantify peptide absorption. The fractional absorption (%) of orally administered peptides was calculated using the following formula [23]: Fractional absorption (%)=ln2/t1/2×calculated oral AUC×plasma volume/oral dose×100

On the set-up of series [3]: method as in PMID 25387326. The conditions noted are these: adult Wistar rats, 40 mg/kg BW; cited from earlier work.
Details of series [4]: method as in PMID 38581395. Conditions: rat model, cited from earlier work.
On the set-up of series [5]: method as in PMID 29732892. Conditions: rats, single oral dose 100 mg/kg body weight; cited from earlier work.

“Also recorded” adds a separate entry of the source. Like-named read-outs stand apart in the source and are kept apart here. No end group written: not given here.

This is an account of results in paper PMC12154214, “Bioactive Peptides from Sodium Caseinate Hydrolysate with High Oral Absorption Regulate Blood Glucose in Type 2 Diabetic Mice via Inhibition of DPP-IV and Stimulation of GLP-1” (Foods, 2025).

T1 sequence (P22411 whole entry): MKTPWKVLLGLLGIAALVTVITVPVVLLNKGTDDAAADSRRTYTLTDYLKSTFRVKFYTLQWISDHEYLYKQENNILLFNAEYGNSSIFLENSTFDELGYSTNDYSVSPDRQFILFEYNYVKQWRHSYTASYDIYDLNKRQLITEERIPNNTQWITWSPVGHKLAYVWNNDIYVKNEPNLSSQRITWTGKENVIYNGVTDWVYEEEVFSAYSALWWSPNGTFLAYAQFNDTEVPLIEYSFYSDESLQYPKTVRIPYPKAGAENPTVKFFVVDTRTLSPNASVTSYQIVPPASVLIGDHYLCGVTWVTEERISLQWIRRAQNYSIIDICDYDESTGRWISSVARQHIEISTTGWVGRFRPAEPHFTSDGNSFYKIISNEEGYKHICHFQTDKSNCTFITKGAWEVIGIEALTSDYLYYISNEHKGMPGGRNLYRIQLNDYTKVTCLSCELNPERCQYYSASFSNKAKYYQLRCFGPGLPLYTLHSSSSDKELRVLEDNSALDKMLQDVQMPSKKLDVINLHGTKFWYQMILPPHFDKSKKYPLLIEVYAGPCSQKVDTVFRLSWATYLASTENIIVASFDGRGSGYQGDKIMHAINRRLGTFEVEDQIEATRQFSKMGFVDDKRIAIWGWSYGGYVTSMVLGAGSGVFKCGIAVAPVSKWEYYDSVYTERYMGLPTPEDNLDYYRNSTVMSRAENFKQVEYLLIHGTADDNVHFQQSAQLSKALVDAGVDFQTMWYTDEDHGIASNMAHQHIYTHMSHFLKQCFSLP

Turning to `N[C@@H](CC(=O)N1CCn2c(nnc2C(F)(F)F)C1)Cc1cc(F)c(F)cc1F` [sitagliptin], the “plasma active GLP-1 level” value in the series on active GLP-1 was found to be 12.29 pM. For the same molecule, in the series on db/db mice, the “OGTT AUC compared to group C” value is “significantly lower AUC values”. Also, the “effect on GLP-1 secretion (in words)” value in the series on NCI-H716 cells and in the series with STC-1 cells was “did not influence GLP-1 secretion; also recorded: failed to induce GLP-1 secretion” throughout. The “plasma total GLP-1 level” value in the series with total GLP-1 is recorded as “unchanged”. The plasma insulin level with plasma insulin stood at 11.31 µg/L.
APDSGNFR had an IC50 against DPP-IV of 73.1 µM. The “structural integrity in plasma (MALDI-TOF/TOF)” value in series [1] is “remained structurally intact”. Moreover, in series [2], the oral bioavailability is 19.12%, the “AR30 (absorption ratio at 30 min)” value came out at 12.74 ± 2.17%, the “AR90 (absorption ratio at 90 min)” value was 12.40 ± 1.97% and the exposure (AUC) was 66600 ng·h/mL. Besides, in series [2], the Cmax stood at 44600 ± 9330 ng/mL, the Fractional absorption is 10.8%, the time of peak concentration (Tmax) is 1 h and the half-life is 1.82 h.
For the molecule GGHLFFC [GGHLFFC], the concentration for half-maximal inhibition (IC50) against DPP-IV came out at 642 µM.
The same measure, in the same setting: then GGKPSSMT, with 839 µM.
With GPFPLPD [GPFPLPD], on DPP-IV, inhibition was half-maximal at 99.1 µM (IC50). Also, in series [1], the “structural integrity in plasma (MALDI-TOF/TOF)” value was “remained structurally intact”. Besides, in [2], the oral bioavailability was determined as 11.28%, the “AR30 (absorption ratio at 30 min)” value was found to be 10.21 ± 1.48%, the “AR90 (absorption ratio at 90 min)” value turned out to be 6.52 ± 0.66% and the AUC is 40200 ng·h/mL. Also, in series [2], the Cmax turned out to be 26100 ± 4120 ng/mL, the Fractional absorption was found to be 7.2%, the time to peak (Tmax) was 1 h and the half-life was found to be 1.65 h.
Turning to HLPLP, in [3], the Cmax is 20.1 ng/mL and the absolute bioavailability is recorded as 5.18%.
As to IRW, the elimination half-life in series [4] (intravenous injection) was 0.475 h; in series [4] (oral administration) it was 0.132 h. For the same molecule, in series [4], the bioavailability is 11.7%.
Take WDHHAPQLR [antioxidative peptide]: in series [5], the bioavailability was 3.56% and the elimination half-life is 1.19 h.
